In ChEMBL document CHEMBL2434849, “The development of bis(hydroxymethyl)pyrrole analogs as bifunctional DNA cross-linking agents and their chemotherapeutic potential” (Eur J Med Chem, 2013):

Key:
[1] = Cytotoxicity against human H460 cells; assay type: functional, cell-based; conditions: NCI-H460
[2] = tested on: MCF7; assay: Cytotoxicity against human MCF7 cells; assay type: functional, cell-based
[3] = tested on: PC-3; assay: Cytotoxicity against human PC3 cells; assay type: functional, cell-based
[4] = tested on: HL-60; assay: Cytotoxicity against human HL60 cells; assay type: functional, cell-based
[5] = tested on: P388; assay: Antitumor activity against mouse P388 cells graft model at 7.5 mg/kg, ip qd for 5 days; assay type: functional; conditions: route intraperitoneal
[6] = tested on: B16; assay: Antitumor activity against mouse B16 cells graft model at 12.5 mg/kg, ip qd for 9 days; assay type: functional; conditions: route intraperitoneal
[7] = tested on: P388; assay: Antitumor activity against mouse P388 cells assessed as increase in life span of host; assay type: functional

In the case of CCNC(=O)OCc1c(COC(=O)NCC)c(-c2ccc(OC)cc2)n2c1Cc1ccccc1-2, the IC50 [1] is reported as 13.2 µM, the IC50 [2] is reported as 25.9 µM and the IC50 [3] is reported as 30.2 µM.
COc1ccc(-c2c(COC(=O)NC(C)C)c(COC(=O)NC(C)C)c3n2-c2ccccc2C3)cc1 showed an IC50 [1] of 20.3 µM, an IC50 [2] of 34.2 µM and an IC50 [3] of 23.2 µM.
In the case of CC(C)NC(=O)OCc1c(COC(=O)NC(C)C)c(-c2ccc(Cl)c(Cl)c2)n2c1CCC2, the IC50 [4] is reported as 1.5 µM.
COc1ccc2c(c1)CCn1c(C)c(COC(=O)NC(C)C)c(COC(=O)NC(C)C)c1-2 gave a T/C [5] of 232% and a T/C [6] of 180%.
Work on CC(C)NC(=O)OCc1c(COC(=O)NC(C)C)c(-c2ccc(F)cc2)n2c1SCC2 yielded an IC50 [4] of 1.6 µM.
Work on Cc1c(COC(=O)NC(C)C)c(COC(=O)NC(C)C)c2n1CS(=O)(=O)C2 yielded an Activity [7] of 118%.
Compound CC(C)NC(=O)OCc1c(COC(=O)NC(C)C)c(-c2ccc(Cl)cc2)n2c1SCC2 has an IC50 [4] of 0.85 µM.
For CC(C)NC(=O)OCc1c(COC(=O)NC(C)C)c(-c2ccccc2)n2c1SCC2, the IC50 [4] was 1.5 µM.
CNC(=O)OCc1c(COC(=O)NC)c(-c2ccc(OC)cc2)n2c1Cc1ccccc1-2 gave an IC50 [1] of 82.1 µM and an IC50 [2] of 20 µM.
